Reference: ChEMBL document CHEMBL3885881, “DrugMatrix”

Organism: Rattus norvegicus
Test: DrugMatrix - Regimen: Daily Repeat
Assay type: toxicity, organism-based, Sprague-Dawley
Parameters: regimen Daily Repeat, gender Male, age 6-8 weeks
Conditions: in vivo, po, route oral GAVAGE, vehicle .5 % CMC; for ABSOLUTE BASOPHIL / ABSOLUTE EOSINOPHIL / ABSOLUTE LYMPHOCYTE / ABSOLUTE MONOCYTE / ABSOLUTE SEGMENTED NEUTROPHIL / BASOPHIL / EOSINOPHIL / ERYTHROCYTE COUNT / HEMATOCRIT / HEMOGLOBIN / LEUKOCYTE COUNT / LYMPHOCYTE / MEAN CORPUSCULAR HEMOGLOBIN / MEAN CORPUSCULAR HEMOGLOBIN CONCENTRATION / MEAN CORPUSCULAR VOLUME / MONOCYTE / NEUTROPHIL / NUCLEATED RED BLOOD CELLS / PLATELET COUNT: tissue Blood; for ALANINE AMINOTRANSFERASE / ALBUMIN / ALKALINE PHOSPHATASE / ASPARTATE AMINOTRANSFERASE / BLOOD UREA NITROGEN / CARBON DIOXIDE / CHLORIDE / CHOLESTEROL / CREATINE PHOSPHOKINASE / CREATININE / GLUCOSE / LACTATE DEHYDROGENASE / LIPASE / PHOSPHORUS / POTASSIUM / SODIUM / TOTAL BILIRUBIN / TOTAL PROTEIN / URIC ACID: tissue Plasma
[1] = 0 mg/kg, 72 h, dose level Control, time 3 day
[2] = 0 mg/kg, 120 h, dose level Control, time 5 day
[3] = 25 mg/kg, 72 h, dose level Low, time 3 day
[4] = 25 mg/kg, 120 h, dose level Low, time 5 day

## CCCCC1C(=O)N(c2ccccc2)N(c2ccccc2)C1=O [PHENYLBUTAZONE]
[1]
  ABSOLUTE BASOPHIL: 0 CELLS/uL
  ABSOLUTE EOSINOPHIL: 35.67 CELLS/uL
  ABSOLUTE LYMPHOCYTE: 9125.17 CELLS/uL
  ABSOLUTE MONOCYTE: 50.17 CELLS/uL
  ABSOLUTE SEGMENTED NEUTROPHIL: 722.33 CELLS/uL
  BASOPHIL: 0%
  EOSINOPHIL: 0.33%
  ERYTHROCYTE COUNT: 5.35 x10E6/uL
  HEMATOCRIT: 33.58%
  HEMOGLOBIN: 13.35 G/DL
  LEUKOCYTE COUNT: 9.93 x10E3/uL
  LYMPHOCYTE: 91.67%
  MEAN CORPUSCULAR HEMOGLOBIN: 25 pg
  MEAN CORPUSCULAR HEMOGLOBIN CONCENTRATION: 39.8 G/DL
  MEAN CORPUSCULAR VOLUME: 62.77 fL
  MONOCYTE: 0.67%
  NEUTROPHIL: 7.33%
  NUCLEATED RED BLOOD CELLS: 0 /100WBC
  PLATELET COUNT: 866.17 x10E3/uL
  ALANINE AMINOTRANSFERASE: 57.17 u/L
  ALBUMIN: 4.22 G/DL
  ALKALINE PHOSPHATASE: 391 u/L
  ASPARTATE AMINOTRANSFERASE: 95.17 u/L
  BLOOD UREA NITROGEN: 13.67 mg/dL
  CARBON DIOXIDE: 30 mmol/L
  CHLORIDE: 102.5 MEQ/L
  CHOLESTEROL: 72 mg/dL
  CREATINE PHOSPHOKINASE: 485.67 u/L
  CREATININE: 0.27 mg/dL
  GLUCOSE: 152 mg/dL
  LACTATE DEHYDROGENASE: 372.67 u/L
  LIPASE: 9.83 u/L
  PHOSPHORUS: 12.47 mg/dL
  POTASSIUM: 6.81 MEQ/L
  SODIUM: 144.1 MEQ/L
  TOTAL BILIRUBIN: 0.23 mg/dL
  TOTAL PROTEIN: 5.93 G/DL
  URIC ACID: 1.9 mg/dL
[2]
  ABSOLUTE BASOPHIL: 0 CELLS/uL
  ABSOLUTE EOSINOPHIL: 67.33 CELLS/uL
  ABSOLUTE LYMPHOCYTE: 11419.17 CELLS/uL
  ABSOLUTE MONOCYTE: 203.17 CELLS/uL
  ABSOLUTE SEGMENTED NEUTROPHIL: 1327 CELLS/uL
  BASOPHIL: 0%
  EOSINOPHIL: 0.5%
  ERYTHROCYTE COUNT: 5.65 x10E6/uL
  HEMATOCRIT: 35.3%
  HEMOGLOBIN: 13.98 G/DL
  LEUKOCYTE COUNT: 13.02 x10E3/uL
  LYMPHOCYTE: 88%
  MEAN CORPUSCULAR HEMOGLOBIN: 24.78 pg
  MEAN CORPUSCULAR HEMOGLOBIN CONCENTRATION: 39.63 G/DL
  MEAN CORPUSCULAR VOLUME: 62.58 fL
  MONOCYTE: 1.33%
  NEUTROPHIL: 10.17%
  NUCLEATED RED BLOOD CELLS: 0 /100WBC
  PLATELET COUNT: 1213.83 x10E3/uL
  ALANINE AMINOTRANSFERASE: 49.67 u/L
  ALBUMIN: 4.28 G/DL
  ALKALINE PHOSPHATASE: 362.33 u/L
  ASPARTATE AMINOTRANSFERASE: 99 u/L
  BLOOD UREA NITROGEN: 20.67 mg/dL
  CARBON DIOXIDE: 26.33 mmol/L
  CHLORIDE: 102 MEQ/L
  CHOLESTEROL: 63.83 mg/dL
  CREATINE PHOSPHOKINASE: 481.83 u/L
  CREATININE: 0.21 mg/dL
  GLUCOSE: 158 mg/dL
  LACTATE DEHYDROGENASE: 656.33 u/L
  LIPASE: 10.67 u/L
  PHOSPHORUS: 12.27 mg/dL
  POTASSIUM: 6.17 MEQ/L
  SODIUM: 143.35 MEQ/L
  TOTAL BILIRUBIN: 0.17 mg/dL
  TOTAL PROTEIN: 6.13 G/DL
  URIC ACID: 1.48 mg/dL
[3]
  ABSOLUTE BASOPHIL: 0 CELLS/uL
  ABSOLUTE EOSINOPHIL: 0 CELLS/uL
  ABSOLUTE LYMPHOCYTE: 8397.33 CELLS/uL
  ABSOLUTE MONOCYTE: 56.33 CELLS/uL
  ABSOLUTE SEGMENTED NEUTROPHIL: 846.33 CELLS/uL
  BASOPHIL: 0%
  EOSINOPHIL: 0%
  ERYTHROCYTE COUNT: 5.18 x10E6/uL
  HEMATOCRIT: 33.27%
  HEMOGLOBIN: 13.33 G/DL
  LEUKOCYTE COUNT: 9.3 x10E3/uL
  LYMPHOCYTE: 90.67%
  MEAN CORPUSCULAR HEMOGLOBIN: 25.83 pg
  MEAN CORPUSCULAR HEMOGLOBIN CONCENTRATION: 40.17 G/DL
  MEAN CORPUSCULAR VOLUME: 64.37 fL
  MONOCYTE: 0.67%
  NEUTROPHIL: 8.67%
  NUCLEATED RED BLOOD CELLS: 0 /100WBC
  PLATELET COUNT: 982.67 x10E3/uL
  ALANINE AMINOTRANSFERASE: 57 u/L
  ALBUMIN: 4.4 G/DL
  ALKALINE PHOSPHATASE: 377 u/L
  ASPARTATE AMINOTRANSFERASE: 101.33 u/L
  BLOOD UREA NITROGEN: 16.33 mg/dL
  CARBON DIOXIDE: 29.33 mmol/L
  CHLORIDE: 103 MEQ/L
  CHOLESTEROL: 73 mg/dL
  CREATINE PHOSPHOKINASE: 583.33 u/L
  CREATININE: 0.17 mg/dL
  GLUCOSE: 154.67 mg/dL
  LACTATE DEHYDROGENASE: 337.67 u/L
  LIPASE: 8.67 u/L
  PHOSPHORUS: 12.6 mg/dL
  POTASSIUM: 6.38 MEQ/L
  SODIUM: 143.37 MEQ/L
  TOTAL BILIRUBIN: 0.13 mg/dL
  TOTAL PROTEIN: 5.87 G/DL
  URIC ACID: 1.67 mg/dL
[4]
  ABSOLUTE BASOPHIL: 0 CELLS/uL
  ABSOLUTE EOSINOPHIL: 72 CELLS/uL
  ABSOLUTE LYMPHOCYTE: 8896 CELLS/uL
  ABSOLUTE MONOCYTE: 33 CELLS/uL
  ABSOLUTE SEGMENTED NEUTROPHIL: 999 CELLS/uL
  BASOPHIL: 0%
  EOSINOPHIL: 0.67%
  ERYTHROCYTE COUNT: 5 x10E6/uL
  HEMATOCRIT: 31.63%
  HEMOGLOBIN: 12.6 G/DL
  LEUKOCYTE COUNT: 10 x10E3/uL
  LYMPHOCYTE: 89%
  MEAN CORPUSCULAR HEMOGLOBIN: 25.27 pg
  MEAN CORPUSCULAR HEMOGLOBIN CONCENTRATION: 39.87 G/DL
  MEAN CORPUSCULAR VOLUME: 63.4 fL
  MONOCYTE: 0.33%
  NEUTROPHIL: 10%
  NUCLEATED RED BLOOD CELLS: 0 /100WBC
  PLATELET COUNT: 635.33 x10E3/uL
  ALANINE AMINOTRANSFERASE: 52 u/L
  ALBUMIN: 4.53 G/DL
  ALKALINE PHOSPHATASE: 362 u/L
  ASPARTATE AMINOTRANSFERASE: 82.33 u/L
  BLOOD UREA NITROGEN: 20 mg/dL
  CARBON DIOXIDE: 25 mmol/L
  CHLORIDE: 105.67 MEQ/L
  CHOLESTEROL: 71.33 mg/dL
  CREATINE PHOSPHOKINASE: 253 u/L
  CREATININE: 0.26 mg/dL
  GLUCOSE: 148 mg/dL
  LACTATE DEHYDROGENASE: 409.67 u/L
  LIPASE: 11 u/L
  PHOSPHORUS: 11.9 mg/dL
  POTASSIUM: 6.52 MEQ/L
  SODIUM: 146.6 MEQ/L
  TOTAL BILIRUBIN: 0.2 mg/dL
  TOTAL PROTEIN: 6.2 G/DL
  URIC ACID: 1.47 mg/dL
